Assay results as given in ChEMBL document CHEMBL1126103, “3'-C-branched 2'-deoxy-5-methyluridines: synthesis, enzyme inhibition, and antiviral properties” (J Med Chem, 1992).

Legend:
MT4 [1] = assay: Effective concentration required to inhibit HIV-1-induced cytopathicity in MT-4 cells; format: functional, cell-based; conditions: Homo sapiens
MT4 [2] = assay: Cytotoxic concentration required to reduce MT-4 cells viability by 50%; format: functional; conditions: Homo sapiens

Compound | EC50 (MT4 [1]) | CC50 (MT4 [2])
Cc1cn([C@H]2C[C@@](C)(O)[C@@H](CO)O2)c(=O)[nH]c1=O | > 500 µM | > 500 µM
Cc1cn([C@H]2C[C@](C)(O)[C@@H](COP(=O)(O)O)O2)c(=O)[nH]c1=O | 72 µM | > 500 µM
Cc1cn([C@H]2C[C@@](C)(O)[C@@H](COP(=O)(O)O)O2)c(=O)[nH]c1=O | 243 µM | > 500 µM
Cc1cn([C@H]2C[C@](C)(O)[C@@H](CO)O2)c(=O)[nH]c1=O | > 500 µM | > 500 µM
